Assay [1] addresses T1, Alpha-2C adrenergic receptor (Homo sapiens, UniProt P18825).
T1 sequence (P18825 whole entry): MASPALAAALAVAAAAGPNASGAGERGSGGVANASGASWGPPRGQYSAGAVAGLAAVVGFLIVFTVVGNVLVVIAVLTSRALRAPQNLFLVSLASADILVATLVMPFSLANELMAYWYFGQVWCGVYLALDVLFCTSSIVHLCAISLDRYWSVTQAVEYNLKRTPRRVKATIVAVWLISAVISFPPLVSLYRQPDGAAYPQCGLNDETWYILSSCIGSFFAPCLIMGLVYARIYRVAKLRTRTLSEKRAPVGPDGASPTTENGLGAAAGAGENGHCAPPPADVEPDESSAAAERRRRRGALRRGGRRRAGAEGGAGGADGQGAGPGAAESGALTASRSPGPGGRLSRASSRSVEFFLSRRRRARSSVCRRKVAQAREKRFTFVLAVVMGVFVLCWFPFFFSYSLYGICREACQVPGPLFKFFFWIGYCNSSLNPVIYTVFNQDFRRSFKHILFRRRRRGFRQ
Description: DRUGMATRIX: Adrenergic Alpha-2C radioligand binding (ligand: [3H] MK-912). Format: cell membranes, Sf9, Membrane.

Assay [2] is described as follows: DRUGMATRIX: Calcium Channel Type L, Phenylalkylamine radioligand binding (ligand: [3H] (-)-Desmethoxyverapamil (D-888)). It counts as cell membranes, Rattus norvegicus, Wistar, Brain, Membrane. The settings on record: Not Active = under 50% inhibition at 10 µM.
In assay [3] the target is Sodium-dependent dopamine transporter (Homo sapiens, UniProt Q01959). Briefly: DRUGMATRIX: Dopamine Transporter radioligand binding (ligand: [125I] RTI-55). It counts as cell membranes, CHO-K1, Membrane. The conditions noted are these: Not Active = under 50% inhibition at 10 µM.
Sodium-dependent dopamine transporter, sequence (Q01959 whole entry): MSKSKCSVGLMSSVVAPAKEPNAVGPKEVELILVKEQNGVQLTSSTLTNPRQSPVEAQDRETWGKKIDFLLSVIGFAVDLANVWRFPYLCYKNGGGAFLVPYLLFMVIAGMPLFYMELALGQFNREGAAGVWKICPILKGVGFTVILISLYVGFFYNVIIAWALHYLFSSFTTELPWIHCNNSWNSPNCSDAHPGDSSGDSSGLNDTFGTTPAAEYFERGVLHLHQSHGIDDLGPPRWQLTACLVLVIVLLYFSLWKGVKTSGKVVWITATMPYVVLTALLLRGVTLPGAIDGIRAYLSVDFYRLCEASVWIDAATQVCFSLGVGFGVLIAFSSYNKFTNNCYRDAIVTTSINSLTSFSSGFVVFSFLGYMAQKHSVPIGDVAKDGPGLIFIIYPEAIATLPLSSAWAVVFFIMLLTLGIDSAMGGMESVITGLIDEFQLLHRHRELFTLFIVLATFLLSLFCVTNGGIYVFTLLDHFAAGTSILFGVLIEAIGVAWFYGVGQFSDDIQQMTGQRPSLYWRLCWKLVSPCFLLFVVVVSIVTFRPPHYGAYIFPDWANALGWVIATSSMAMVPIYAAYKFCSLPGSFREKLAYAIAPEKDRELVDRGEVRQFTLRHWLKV
In assay [4] the target is T2, Neuropeptide Y receptor type 2 (Homo sapiens, UniProt P49146). Also: in other assays of this panel Not Active means under 50% inhibition at 10 µM.
T2 sequence (P49146 whole entry): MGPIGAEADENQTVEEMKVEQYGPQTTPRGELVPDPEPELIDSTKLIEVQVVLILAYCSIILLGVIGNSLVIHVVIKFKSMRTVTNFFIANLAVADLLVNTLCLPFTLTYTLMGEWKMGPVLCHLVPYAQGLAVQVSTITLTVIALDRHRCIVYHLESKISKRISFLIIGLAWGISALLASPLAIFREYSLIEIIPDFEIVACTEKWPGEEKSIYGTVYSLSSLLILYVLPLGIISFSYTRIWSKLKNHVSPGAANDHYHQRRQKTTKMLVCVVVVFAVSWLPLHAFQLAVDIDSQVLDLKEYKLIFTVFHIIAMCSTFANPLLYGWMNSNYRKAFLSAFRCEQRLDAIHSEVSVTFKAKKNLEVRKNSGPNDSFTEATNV
Format: cell membranes, Membrane. The conditions noted are these: kan-ts.

For the next assay, the target named is Acetylcholinesterase (Homo sapiens, UniProt P22303). Briefly: DRUGMATRIX: Acetylcholinesterase enzyme inhibition (substrate: acetylthiocholine). It counts as cell-based, HEK293. The settings on record: hek293; Not Active = under 50% inhibition at 10 µM.
Acetylcholinesterase, sequence (P22303 whole entry): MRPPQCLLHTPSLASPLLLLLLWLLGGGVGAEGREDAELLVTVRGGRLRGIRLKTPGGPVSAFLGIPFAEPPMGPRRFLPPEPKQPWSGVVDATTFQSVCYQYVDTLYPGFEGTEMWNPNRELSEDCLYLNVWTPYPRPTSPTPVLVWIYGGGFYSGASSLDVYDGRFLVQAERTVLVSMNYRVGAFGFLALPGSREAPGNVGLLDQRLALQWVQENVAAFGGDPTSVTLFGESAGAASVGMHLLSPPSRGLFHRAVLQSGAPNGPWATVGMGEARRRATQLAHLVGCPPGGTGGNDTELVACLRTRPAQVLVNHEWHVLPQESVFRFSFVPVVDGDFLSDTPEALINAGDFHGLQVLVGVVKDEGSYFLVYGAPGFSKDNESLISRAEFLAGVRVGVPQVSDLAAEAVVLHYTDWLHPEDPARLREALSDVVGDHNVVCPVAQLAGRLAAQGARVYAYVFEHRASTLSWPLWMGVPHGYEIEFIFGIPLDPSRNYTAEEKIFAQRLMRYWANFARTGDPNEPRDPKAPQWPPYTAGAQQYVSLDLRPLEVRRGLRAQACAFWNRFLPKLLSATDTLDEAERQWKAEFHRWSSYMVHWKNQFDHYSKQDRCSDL
The next assay addresses T3, Glucocorticoid receptor (Homo sapiens, UniProt P04150).
T3 sequence (P04150 whole entry): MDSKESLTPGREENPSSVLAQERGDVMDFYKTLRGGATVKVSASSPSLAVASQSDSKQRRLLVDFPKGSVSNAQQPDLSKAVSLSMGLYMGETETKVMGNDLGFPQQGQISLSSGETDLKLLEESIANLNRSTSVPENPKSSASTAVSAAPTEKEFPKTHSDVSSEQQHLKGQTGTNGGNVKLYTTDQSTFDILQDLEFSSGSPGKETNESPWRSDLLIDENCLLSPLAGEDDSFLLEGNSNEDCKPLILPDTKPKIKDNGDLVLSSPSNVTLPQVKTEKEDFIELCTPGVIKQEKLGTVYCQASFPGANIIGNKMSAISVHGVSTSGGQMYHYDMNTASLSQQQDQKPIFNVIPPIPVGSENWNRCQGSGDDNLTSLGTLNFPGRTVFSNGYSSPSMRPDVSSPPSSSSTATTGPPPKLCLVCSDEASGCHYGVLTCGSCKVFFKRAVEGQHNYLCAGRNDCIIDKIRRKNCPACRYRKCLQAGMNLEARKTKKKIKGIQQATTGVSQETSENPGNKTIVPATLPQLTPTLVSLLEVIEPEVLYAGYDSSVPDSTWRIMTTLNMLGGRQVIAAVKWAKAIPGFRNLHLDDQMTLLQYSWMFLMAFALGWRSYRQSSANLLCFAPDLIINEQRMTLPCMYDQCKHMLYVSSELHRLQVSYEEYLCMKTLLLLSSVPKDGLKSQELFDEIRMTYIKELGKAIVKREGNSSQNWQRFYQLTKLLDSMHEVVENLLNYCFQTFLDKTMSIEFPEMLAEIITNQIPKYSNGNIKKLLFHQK
The settings on record: hela s3.

Turning to `CC12CCC(CC1)C(C)(C)O2` [EUCALYPTOL], the IC50 result (in assay [1] (sf9); in assay [2]; in assay [3] (cho-k1); in assay [4]; against Acetylcholinesterase; at Glucocorticoid receptor) was “Not Active” throughout. Moreover, the Ki result in assay [2] is given as “Not Active”.
In the case of `NC(N)=Nc1nc(CSCCC(N)=NS(N)(=O)=O)cs1` [FAMOTIDINE], the IC50 result (in assay [1] (sf9); in assay [2]; in assay [3] (cho-k1); in assay [4]; at Acetylcholinesterase; at Glucocorticoid receptor) was “Not Active” each time. Besides, the inhibition constant Ki entry in assay [2] was “Not Active”.
Turning to `COC(=O)Nc1nc2ccc(Sc3ccccc3)cc2[nH]1` [FENBENDAZOLE], the IC50 entry (in assay [1] (sf9); in assay [2]; in assay [3] (cho-k1); in assay [4]; at Acetylcholinesterase; at Glucocorticoid receptor) was “Not Active” in each case. In addition, the Ki result in assay [2] is given as “Not Active”.
With `COc1cc(/C=C/C(=O)O)ccc1O` [FERULATE], the IC50 entry (in assay [1] (sf9); in assay [2]; in assay [3] (cho-k1); in assay [4]; at Acetylcholinesterase; on Glucocorticoid receptor) was “Not Active” in each case. For the same compound, the Ki entry in assay [2] is on record as “Not Active”.
As for `Nc1nc(F)nc2c1ncn2[C@@H]1O[C@H](CO)[C@@H](O)[C@@H]1O` [FLUDARABINE], the IC50 entry (in assay [1] (sf9); in assay [2]; in assay [3] (cho-k1); in assay [4]; against Acetylcholinesterase; against Glucocorticoid receptor) was “Not Active” in each case. For the same compound, in assay [2], the Ki result is reported as “Not Active”.
In the case of `C[C@H](C(=O)O)c1ccc2oc(-c3ccc(F)cc3)nc2c1` [FLUNOXAPROFEN], the IC50 entry (in assay [1] (sf9); in assay [2]; in assay [3] (cho-k1); in assay [4]; against Acetylcholinesterase; against Glucocorticoid receptor) was “Not Active” each time. In addition, the inhibition constant (Ki) result in assay [2] is “Not Active”.
With `O=C(O)CNCP(=O)(O)O` [GLYPHOSATE], the IC50 entry (in assay [1] (sf9); in assay [2]; in assay [3] (cho-k1); in assay [4]; against Acetylcholinesterase; on Glucocorticoid receptor) was “Not Active” each time. Moreover, in assay [2], the Ki entry was “Not Active”.
For the compound `Clc1cc(Cl)c(OCC#CI)cc1Cl` [HALOPROGIN], the IC50 in assay [1] (read-out: IC50) is 4040 nM; in assay [2] it was “Not Active”; in assay [3] (read-out: IC50), 1970 nM; in assay [4], “Not Active”; on Acetylcholinesterase, “Not Active”; on Glucocorticoid receptor, “Not Active”. Moreover, the Ki was 588 nM in assay [1] (read-out: Ki), “Not Active” in assay [2] and 1560 nM in assay [3] (read-out: Ki).
Take `COC(=O)C[C@](O)(CCC(C)(C)O)C(=O)O[C@@H]1C(OC)=C[C@]23CCCN2CCc2cc4c(cc2[C@H]13)OCO4` [HARRINGTONINE]: the IC50 entry (in assay [1] (sf9); in assay [2]; in assay [3] (cho-k1); in assay [4]; against Acetylcholinesterase; at Glucocorticoid receptor) was “Not Active” in each case. In addition, in assay [2], the Ki entry is “Not Active”.
Turning to `CCN(CCO)CCCC(C)Nc1ccnc2cc(Cl)ccc12` (stereo not given) [HYDROXYCHLOROQUINE], the IC50 entry (in assay [1] (sf9); in assay [2]; in assay [3] (cho-k1); in assay [4]; against Acetylcholinesterase; against Glucocorticoid receptor) was “Not Active” in each case. In addition, the Ki result in assay [2] is “Not Active”.
Take `CC(=O)[C@]1(O)Cc2c(O)c3c(c(O)c2[C@@H](O[C@H]2C[C@H](N)[C@H](O)[C@H](C)O2)C1)C(=O)c1ccccc1C3=O` [IDARUBICIN]: the IC50 result (in assay [1] (sf9); in assay [2]; in assay [3] (cho-k1); in assay [4]; on Acetylcholinesterase; against Glucocorticoid receptor) was “Not Active” each time. Besides, the Ki result in assay [2] is “Not Active”.
Turning to `CC(C)Cn1cnc2c(N)nc3ccccc3c21` [IMIQUIMOD], the IC50 result (in assay [1] (sf9); in assay [2]; in assay [3] (cho-k1); in assay [4]; against Acetylcholinesterase; at Glucocorticoid receptor) was “Not Active” each time. Moreover, the Ki entry in assay [2] was “Not Active”.
For the compound `C=CCN1CC[C@]23c4c5ccc(O)c4O[C@H]2/C(=N/N=C2\CC[C@@]4(O)[C@H]6Cc7ccc(O)c8c7[C@@]4(CCN6CC=C)[C@H]2O8)CC[C@@]3(O)[C@H]1C5` [NALOXONAZINE], the IC50 result (in assay [1] (sf9); in assay [2]; in assay [3] (cho-k1); in assay [4]; against Acetylcholinesterase; against Glucocorticoid receptor) was “Not Active” each time. Besides, the Ki entry in assay [2] is recorded as “Not Active”.
`Cc1ccnc2c1NC(=O)c1cccnc1N2C1CC1` [NEVIRAPINE]: the IC50 entry (in assay [1] (sf9); in assay [2]; in assay [3] (cho-k1); in assay [4]; against Acetylcholinesterase; at Glucocorticoid receptor) was “Not Active” throughout. For the same compound, the Ki entry in assay [2] is reported as “Not Active”.
Regarding `O=C1CN(/N=C/c2ccc([N+](=O)[O-])o2)C(=O)N1` [NITROFURANTOIN], the IC50 entry (in assay [1] (sf9); in assay [2]; in assay [3] (cho-k1); in assay [4]; against Acetylcholinesterase; at Glucocorticoid receptor) was “Not Active” in each case. The Ki entry in assay [2] is “Not Active”.
As to `O=C(O)CCc1nc(-c2ccccc2)c(-c2ccccc2)o1` [OXAPROZIN], the IC50 entry (in assay [1] (sf9); in assay [2]; in assay [3] (cho-k1); in assay [4]; at Acetylcholinesterase; against Glucocorticoid receptor) was “Not Active” each time. In addition, the Ki result in assay [2] is reported as “Not Active”.
For the compound `NC(=O)NC(=O)Cc1ccccc1` [PHENACEMIDE], the IC50 result (in assay [1] (sf9); in assay [2]; in assay [3] (cho-k1); in assay [4]; at Acetylcholinesterase; at Glucocorticoid receptor) was “Not Active” each time. For the same compound, the Ki entry in assay [2] is given as “Not Active”.
Consider `O=C1c2ccccc2C(=O)C1c1ccccc1` [PHENINDIONE], for which the IC50 result (in assay [1] (sf9); in assay [2]; in assay [3] (cho-k1); in assay [4]; on Acetylcholinesterase; against Glucocorticoid receptor) was “Not Active” in each case. In addition, in assay [2], the Ki entry is on record as “Not Active”.
With `COc1cc([C@@H]2c3cc4c(cc3[C@H](O)[C@H]3COC(=O)[C@H]23)OCO4)cc(OC)c1OC` [PODOFILOX], the IC50 result (in assay [1] (sf9); in assay [2]; in assay [3] (cho-k1); in assay [4]; at Acetylcholinesterase; against Glucocorticoid receptor) was “Not Active” each time. In assay [2], the Ki result is “Not Active”.

These data come from ChEMBL document CHEMBL1909046, “DrugMatrix in vitro pharmacology data”.
